According to US20080026417A1, “ASSAYS FOR TRICHOMONAL AND OTHER HYDROLASES” (priority 2002, published 2008):

Columns and labels:
[1] = tested on: non-trichomonal hydrolases present in normal vaginal fluid supernatants; experiment: Experiment 6 part 1: inhibition of non-trichomonal hydrolases in filtered normal vaginal fluid; assay type: biochemical, human; design: key: 0: Yellow; 1: Peach; 2: Orange; 3: Light to medium pink; 4: Dark pink or red; 5: Fuchsia; 6: Purple; conditions: uninfected, ZRR-MNA, 20 μg/mL antipain or 1 mM chymostatin
Protocol: (§1) Substrate/inhibitor combinations were prepared by mixing 4 μL of 100 mM ZRR-MNA, 20 μL of 1M HEPES buffer, 56 μL of deionized water, and 20 μL of either antipain, chymostatin, or deionized water. Filtered vaginal fluid was prepared from each specimen as follows: the swab was placed in a cuvette containing 200 μL of diluent and the swab was rotated in the diluent to thoroughly mix the swab contents into the diluent. The swab was removed, the swab head was broken off into a microfuge tube, and the liquid remaining in the swab head was forced out by centrifugation. The fluid extracted from the swab was combined with the liquid in the cuvette, and the total volume of fluid was filtered using a centrifuge filter unit to remove particulate matter.
(§2) For each specimen, 4 μL of vaginal fluid filtrate was mixed with 4 μL of each of the three substrate/inhibitor combinations in separate microwells; one well contained 20 μg/mL antipain, one contained 1 mM chymostatin, and one had no inhibitor. After ten minutes, 4 μL of color developer solution was added to each well.

trichomonal hydrolases = experiment: Experiment 6 part 2: inhibition of trichomonal hydrolases added to filtered vaginal fluid; assay type: biochemical, Trichomonas vaginalis; design: key: 0: Yellow; 1: Peach; 2: Orange; 3: Light to medium pink; 4: Dark pink or red; 5: Fuchsia; 6: Purple; conditions: ZRR-MNA, 20 μg/mL antipain or 1 mM chymostatin
Protocol: as §1, §2
Trichomonal hydrolases were added to each of the filtered vaginal fluid specimens—10 μL of trichomonal hydrolase preparation added to 90 μL vaginal fluid filtrate—and the above experiment was repeated.

CC(C)C[C@H](NC(=O)[C@@H](NC(=O)N[C@@H](Cc1ccccc1)C(=O)O)[C@@H]1CCN=C(N)N1)C(=O)N[C@H](C=O)Cc1ccccc1 [Chymostatin, chymostatin]
Hydrolase activity color score with inhibitor ([1]; Donor A): 0
Hydrolase activity color score with inhibitor ([1]; Donor B): 0
Hydrolase activity color score with inhibitor ([1]; Donor C): 0
Hydrolase activity color score with inhibitor ([1]; Donor D): 2
Hydrolase activity color score with inhibitor ([1]; Donor E): 0
Hydrolase activity color score with inhibitor ([1]; Donor F): 0
Hydrolase activity color score with inhibitor (trichomonal hydrolases; Donor A filtrate supplemented with trichomonal hydrolases): 3.5
Hydrolase activity color score with inhibitor (trichomonal hydrolases; Donor B filtrate supplemented with trichomonal hydrolases): 3.5
Hydrolase activity color score with inhibitor (trichomonal hydrolases; Donor C filtrate supplemented with trichomonal hydrolases): 3.5
Hydrolase activity color score with inhibitor (trichomonal hydrolases; Donor D filtrate supplemented with trichomonal hydrolases): 4
Hydrolase activity color score with inhibitor (trichomonal hydrolases; Donor E filtrate supplemented with trichomonal hydrolases): 3
Hydrolase activity color score with inhibitor (trichomonal hydrolases; Donor F filtrate supplemented with trichomonal hydrolases): 3
